Experimental data from patent US20250017952A1, “ANTIFUNGAL COMPOUND, COMPOSITION AND USES THEREOF” (SASTRA DEEMED UNIVERSITY, priority 2021, published 2025).
“And” between values parts separate entries of the source, which are not always exact repeats. Equal entries are not always repeated. “Also recorded” adds a separate entry of the source.

Experiments:
[1] = system: C. albicans SC5314 biofilm; experiment: CLSM analysis of biofilm with COMSTAT quantification; format: cell-based, Candida albicans; conditions: for live/dead fluorescence of cells in CLSM: green = live, red = dead
Excerpt: FIG. 4a illustrates CLSM analyses of biofilm inhibitory effects of Cangrelor against C. albicans SC5314. […] The presence of red fluorescence in fluconazole treatment confirms its fungicidal effect. The COMSTAT analysis was done to quantify the biofilm coverage, average thickness, and biovolume from Z-stacks obtained from at least 5 regions of the glass slides, using a confocal laser scanning microscope (Olympus FLUOVIEW, FV1000) with a 40× objective lens (FIG. 4b).

[2] = system: C. albicans biofilm, hyphal and virulence genes; experiment: qRTPCR of biofilm, hyphal and virulence genes; format: cell-based, Candida albicans
Experimental: FIG. 8 illustrates the qRTPCR analysis of biofilm, hyphal and virulence genes in C. albicans biofilms treated with Cangrelor using 18srRNA as the housekeeping gene. Briefly, after 24 h incubation, planktonic cells were removed, and biofilm cells were collected, and RNA was extracted for the treated and untreated groups. […] The data was obtained in triplicates and analysis was performed by the 2^−ΔΔCt method.

[3] = system: Candida albicans SC5314, ATCC90028, clinical isolate BF1; experiment: Germ tube / filamentation inhibition, phase contrast; format: cell-based; conditions: for germ tube / hyphal morphogenesis, time-dependent: till 6 h, three strains
Experimental: FIG. 6 illustrates the phase contrast images of germ tube inhibition of Candida albicans for the three strains by cangrelor in a time-dependent manner till 6 h. The untreated C. albicans show the hyphal development from the 2nd hour, where the yeast cells adhere, and at the 6 h, the hyphal is elongated and branched.
FIG. 7 illustrates the phase contrast images of filamentation inhibition of Candida albicans by cangrelor after 24 h of inhibition.
A time-dependent mapping of the hyphal development was done until 6 h upon Cangrelor treatment and compared to the untreated control for the three strains of C. albicans, including the standard strains-SC5314 and ATCC90028, and clinical isolate, BF1. […] The morphogenesis switch inhibition is essential as the primary virulence characteristic of C. albicans is hyphal formation. The hyphal form is necessary for biofilm formation and polymicrobial interaction to invade the host cell and overcome the immune response.

[4] = system: Candida albicans on T24 bladder epithelial cells; experiment: Adhesion and invasion of C. albicans in monolayer T24 bladder epithelial cells; format: cell-based
Excerpt: FIG. 10 illustrates the microscopic images of the monolayer T24 bladder epithelial cells infected with Candida albicans with and without Cangrelor treatment. […] The yeast cells (circled in white) were maintained upon the treatment and thereby couldn't adhere and invade the epithelial cells.

C. albicans biofilm = experiment: Biofilm inhibition, Crystal Violet (CV) assay; format: cell-based, Candida albicans; conditions: crystal violet biofilm biomass
Experimental: (§1) FIG. 3 illustrates antifungal and antibiofilm evaluation against C. albicans at varying concentrations: The effect of the Cangrelor on planktonic cells was determined by measuring the OD at 595 nm. A wide range of concentrations ranging from 100 μM-0.47 pM were considered for evaluation. Biofilm inhibitory effects were determined by measuring the biofilm biomass using the Crystal Violet (CV) assay. The dose-response curves were plotted by fitting the inhibition data using a 4-parameter logistic equation. Cangrelor inhibited biofilms at a minimum concentration of 120 pM

[5] = system: C. albicans SC5314 biofilm; experiment: SEM analysis of biofilm; format: cell-based, Candida albicans
Experimental: FIG. 5 illustrates Cangrelor abolish C. albicans SC5314 biofilm. An overnight culture of C. albicans was grown overnight at 30° C. in YPD liquid media. C. albicans cells (1.5×10^7 cells/ml) were seeded on the glass slides in the presence or absence of the ALS-3 drug-like chemotype, Cangrelor in YPD and incubated at 37° C. for 24 h. […] Statistical significance was determined using the unpaired Student's t test (P<0.0001).

[6] = system: C. albicans planktonic cells; experiment: Planktonic growth, OD at 595 nm; format: cell-based, Candida albicans; conditions: 100 μM-0.47 pM tested
Experimental: as §1

[7] = system: C. albicans virulence genes (biofilm, hyphae, drug resistance); experiment: RNAseq differential expression analysis; format: cell-based, Candida albicans; conditions: treated vs untreated
Excerpt: A cutoff absolute value of log fold change >1 (2-fold change) was used. Adjusted P value <0.05 (c) Venn diagram illustrating the degree of overlap between various virulence genes (Biofilm Inducing (BI); Hyphal Inducing (HI); and Drug Resistance (DR) in C. albicans under drug (Cangrelor) treated and untreated conditions.
TRY6, FYV5 (Pentland et al., 2018; Murillo et al., 2005; Nett et al., 2009a), drug-resistance genes MAK1 and RPP1 (Nett et al., 2009b; Levitin & Whiteway, 2007a) and upregulation of the genes, GAL and MAF1 that negatively regulates (repressors) the biofilm phenotype in C. albicans (Nobile et al., 2012). […] In Candida albicans, the potential shift from yeast to hypha is a route cause to host invasion and symbiotic relationship with other pathogens, where the data was significant to show downregulation of hyphal-specific genes such as ECE1, RAS, NDT80 (Moyes et al., 2016). […] This observation was very crucial to the inventor's claim that the compound, Cangrelor could potentiate the anti-fungal susceptibility (Moyes et al., 2016; Maglott et al., 2007b; Levitin & Whiteway, 2007b; Chaudhuri et al., 2011; Singh et al., 2011). Taken together, Cangrelor systematically downregulate the virulence features to potentially curb the pathogenesis of C. albicans.

Structure (SMILES): OC(Cn1cncn1)(Cn1cncn1)c1ccc(F)cc1F [fluconazole]
- live/dead fluorescence of cells in CLSM [1]: dead cells

Structure (SMILES): CSCCNc1nc(SCCC(F)(F)F)nc2c1ncn2[C@@H]1O[C@H](COP(=O)(O)OP(=O)(O)C(Cl)(Cl)P(=O)(O)O)[C@@H](O)[C@H]1O [Cangrelor]
- expression of adhesion and invasion genes ([2]; 240 pM, 24 h biofilm cells): downregulated
- ECE1 gene expression ([2]; qRTPCR): downregulation
- ERG11 gene expression ([2]; qRTPCR): downregulated
- PLB1 expression downregulation ([2]; qRTPCR, 2^−ΔΔCt): ~2 log fold
- expression of transcriptional regulators of biofilm and hyphal genes, adhesin and hyphal specific protein ([2]; qRTPCR, 18srRNA housekeeping): downregulated
- filamentation after 24 h ([3]; 24 h): maintained the yeast form
- germ tube / hyphal morphogenesis, time-dependent [3]: inhibits the hyphal morphogenesis
- germ tube / hyphal morphogenesis, time-dependent ([3]; listed as cangrelor): did not switch to the hyphal form
- adherence and invasion of epithelial cells [4]: reducing adherence and invasion
- hyphal morphogenesis on epithelial cells [4]: inhibited hyphal morphogenesis
- IC50 (C. albicans biofilm; Candida albicans, read-out: BIC50 (50% Biofilm Inhibition Concentration)): 0.12 nM
- concentration at which biofilms were inhibited (minimum / very low concentration) (C. albicans biofilm): 120 pM
- biofilm structure in CLSM images ([1]; C. albicans SC5314): no biofilm formation
- roughness coefficient ([1]; COMSTAT, control 1.2): 1.91
- diffusion distance ([1]; COMSTAT, control 8.73 μm): 0.18 μm
- average biofilm thickness ([1]; COMSTAT, control 28.64 μm): 0.5 μm
- biofilm biomass ([1]; COMSTAT, untreated 25.96 μm): significant reduction
- live/dead fluorescence of cells in CLSM [1]: live cells
- filamentation in SEM ([5]; 120 pM vs untreated control): abolished filamentation
- number of cells in SEM ([5]; 120 pM, 24 h, YPD, untreated more than 1200 cells): < 56 cells and < 60 cells
- growth of C. albicans (planktonic) [6]: without affecting growth; also recorded: not inhibited
- number of biofilm inducing genes downregulated [7]: more than 90 genes
